Reference: ChEMBL document CHEMBL4622979, “Non-rigid Diarylmethyl Analogs of Baloxavir as Cap-Dependent Endonuclease Inhibitors of Influenza Viruses” (J Med Chem, 2020)

Tests used:
[1] = Ratio of AUClast in CD1 mouse lung to plasma assessed as (12aR)-12-(Diphenylmethyl)-7-hydroxy-3,4,12,12a-tetrahydro-1H-[1,4]oxazino[3,4-c]pyrido[2,1-f ][1,2,4]triazine-6,8-dione level at 15 mg/kg, po administered as single dose by LC-MS/MS analysis; assay type: ADME, organism-based; settings: other tissue
[2] = AUClast in CD1 mouse kidney assessed as (12aR)-12-(Diphenylmethyl)-7-hydroxy-3,4,12,12a-tetrahydro-1H-[1,4]oxazino[3,4-c]pyrido[2,1-f ][1,2,4]triazine-6,8-dione level at 15 mg/kg, po administered as single dose measured up to 24 hrs by LC-MS/MS analysis; assay type: ADME, organism-based; settings: in vivo
[3] = Ratio of free drug level in CD1 mouse blood assessed as (12aR)-12-(Diphenylmethyl)-7-hydroxy-3,4,12,12a-tetrahydro-1H-[1,4]oxazino[3,4-c]pyrido[2,1-f ][1,2,4]triazine-6,8-dione level at 50 mg/kg, po to EC50 for antiviral activity against Influenza A/California/04/2009 (H1N1)pdm09 infected in MDCK cells; assay type: ADME, organism-based; settings: in vivo
[4] = Cmax in CD1 mouse small intestine assessed as (12aR)-12-(Diphenylmethyl)-7-hydroxy-3,4,12,12a-tetrahydro-1H-[1,4]oxazino[3,4-c]pyrido[2,1-f ][1,2,4]triazine-6,8-dione level at 15 mg/kg, po administered as single dose measured up to 24 hrs by LC-MS/MS analysis; assay type: ADME, organism-based; set-up: dose 15 mg/kg, route oral; settings: in vivo
[5] = AUClast in CD1 mouse liver assessed as (12aR)-12-(Diphenylmethyl)-7-hydroxy-3,4,12,12a-tetrahydro-1H-[1,4]oxazino[3,4-c]pyrido[2,1-f ][1,2,4]triazine-6,8-dione level at 15 mg/kg, po administered as single dose measured up to 24 hrs by LC-MS/MS analysis; assay type: ADME, organism-based; settings: in vivo
[6] = Cytotoxicity against human HepG2 cells assessed as reduction in cell viability measured after 24 hrs in presence of glucose by MTT assay; assay type: cell-based
[7] = Stability in rat plasma assessed as parent compound remaining at 1 uM measured after 4 hrs by LC-MS/MS analysis; assay type: ADME, cell-free; settings: read-out: Stability
[8] = Cmax in CD1 mouse lung assessed as (12aR)-12-(Diphenylmethyl)-7-hydroxy-3,4,12,12a-tetrahydro-1H-[1,4]oxazino[3,4-c]pyrido[2,1-f ][1,2,4]triazine-6,8-dione level at 15 mg/kg, po administered as single dose by LC-MS/MS analysis; assay type: ADME, organism-based; set-up: dose 15 mg/kg, route oral; settings: in vivo
[9] = Tmax in CD1 mouse plasma assessed as (12aR)-12-(Diphenylmethyl)-7-hydroxy-3,4,12,12a-tetrahydro-1H-[1,4]oxazino[3,4-c]pyrido[2,1-f ][1,2,4]triazine-6,8-dione level at 15 mg/kg, po administered as single dose measured up to 24 hrs by LC-MS/MS analysis; assay type: ADME, organism-based; settings: in vivo
[10] = Acute toxicity in CD1 mouse assessed as effect on lung at 2000 mg/kg, po measured after 2 weeks by macroscopic analysis; assay type: organism-based; settings: in vivo, 336 h
[11] = Cytotoxicity against human MRC5 cells assessed as reduction in cell viability by ATP bioluminescence assay; assay type: cell-based
[12] = Elimination rate constant in CD1 mouse heart assessed as (12aR)-12-(Diphenylmethyl)-7-hydroxy-3,4,12,12a-tetrahydro-1H-[1,4]oxazino[3,4-c]pyrido[2,1-f ][1,2,4]triazine-6,8-dione level at 15 mg/kg, po administered as single dose measured up to 24 hrs by LC-MS/MS analysis; assay type: ADME, organism-based; settings: in vivo
[13] = Tmax in CD1 mouse kidney assessed as (12aR)-12-(Diphenylmethyl)-7-hydroxy-3,4,12,12a-tetrahydro-1H-[1,4]oxazino[3,4-c]pyrido[2,1-f ][1,2,4]triazine-6,8-dione level at 15 mg/kg, po administered as single dose measured up to 24 hrs by LC-MS/MS analysis; assay type: ADME, organism-based; settings: in vivo
[14] = Elimination rate constant in CD1 mouse brain assessed as (12aR)-12-(Diphenylmethyl)-7-hydroxy-3,4,12,12a-tetrahydro-1H-[1,4]oxazino[3,4-c]pyrido[2,1-f ][1,2,4]triazine-6,8-dione level at 15 mg/kg, po administered as single dose measured up to 24 hrs by LC-MS/MS analysis; assay type: ADME, organism-based; settings: in vivo
[15] = Tmax in CD1 mouse small intestine assessed as (12aR)-12-(Diphenylmethyl)-7-hydroxy-3,4,12,12a-tetrahydro-1H-[1,4]oxazino[3,4-c]pyrido[2,1-f ][1,2,4]triazine-6,8-dione level at 15 mg/kg, po administered as single dose measured up to 24 hrs by LC-MS/MS analysis; assay type: ADME, organism-based; settings: in vivo
[16] = Elimination rate constant in CD1 mouse liver assessed as (12aR)-12-(Diphenylmethyl)-7-hydroxy-3,4,12,12a-tetrahydro-1H-[1,4]oxazino[3,4-c]pyrido[2,1-f ][1,2,4]triazine-6,8-dione level at 15 mg/kg, po administered as single dose measured up to 24 hrs by LC-MS/MS analysis; assay type: ADME, organism-based; settings: in vivo
[17] = AUCinfinity in CD1 mouse spleen assessed as baloxavir acid level at 15 mg/kg, po administered as single dose measured up to 24 hrs by LC-MS/MS analysis; assay type: ADME, organism-based; set-up: dose 15 mg/kg, route oral, time infinity; settings: in vivo
[18] = Elimination rate constant in CD1 mouse blood assessed as baloxavir acid level at 15 mg/kg, po administered as single dose measured up to 24 hrs by LC-MS/MS analysis; assay type: ADME, organism-based; settings: in vivo
[19] = AUClast in CD1 mouse brain assessed as baloxavir acid level at 15 mg/kg, po administered as single dose measured up to 24 hrs by LC-MS/MS analysis; assay type: ADME, organism-based; settings: in vivo
[20] = Tmax in CD1 mouse brain assessed as baloxavir acid level at 15 mg/kg, po administered as single dose measured up to 24 hrs by LC-MS/MS analysis; assay type: ADME, organism-based; settings: in vivo
[21] = Ratio of AUClast in CD1 mouse muscle to plasma assessed as baloxavir acid level at 15 mg/kg, po administered as single dose measured up to 24 hrs by LC-MS/MS analysis; assay type: ADME, organism-based; settings: other tissue
[22] = AUCinfinity in CD1 mouse lung assessed as baloxavir acid level at 15 mg/kg, po administered as single dose measured up to 24 hrs by LC-MS/MS analysis; assay type: ADME, organism-based; set-up: dose 15 mg/kg, route oral, time infinity; settings: in vivo
[23] = Cmax in CD1 mouse liver assessed as baloxavir acid level at 15 mg/kg, po administered as single dose measured up to 24 hrs by LC-MS/MS analysis; assay type: ADME, organism-based; set-up: dose 15 mg/kg, route oral; settings: in vivo
[24] = MRTlast in CD1 mouse kidney assessed as baloxavir acid level at 15 mg/kg, po administered as single dose measured up to 24 hrs by LC-MS/MS analysis; assay type: ADME, organism-based; settings: in vivo
[25] = MRTlast in CD1 mouse small intestine assessed as baloxavir acid level at 15 mg/kg, po administered as single dose measured up to 24 hrs by LC-MS/MS analysis; assay type: ADME, organism-based; settings: in vivo
[26] = MRTlast in CD1 mouse brain assessed as baloxavir acid level at 15 mg/kg, po administered as single dose measured up to 24 hrs by LC-MS/MS analysis; assay type: ADME, organism-based; settings: in vivo
[27] = Half life in CD1 mouse brain assessed as baloxavir acid level at 15 mg/kg, po administered as single dose measured up to 24 hrs by LC-MS/MS analysis; assay type: ADME, organism-based; settings: in vivo

For `COC(=O)OCOc1c2n(ccc1=O)N(C(c1ccccc1)c1ccccc1)[C@@H]1COCCN1C2=O`, the “Ratio AUC” value [1] was 3, the AUClast [2] was 18065 ng·h/g and the Ratio [3] was 44. For the same molecule, the Cmax [4] was 24707 ng/g, the AUClast [5] was 34818 ng·h/g and the CC50 at 24 h [6] was 51 µM. The remaining at 4 h, 1 µM [7] was 0%, the Cmax [8] was 1882 ng/g and the Tmax [9] was 0.5 h. The Activity [10] was “Non-Toxic”, the CC50 [11] was greater than 100 µM and the Kel [12] was 0.41 h⁻¹. For the same molecule, the Tmax [13] was 0.5 h, the Kel [14] was 0.08 h⁻¹ and the Tmax [15] was 0.5 h. The Kel [16] was 0.3 h⁻¹.

`COC(=O)OCOc1c2n(ccc1=O)N([C@@H]1c3ccccc3SCc3c1ccc(F)c3F)[C@@H]1COCCN1C2=O` [BALOXAVIR MARBOXIL] gave an AUC [17] of 3640 ng·h/g, a Kel [18] of 0.21 h⁻¹ and an AUClast [19] of 317 ng·h/g. For the same molecule, the Tmax [20] was 2 h, the “Ratio AUC” value [21] was 10.4 and the AUC [22] was 9025 ng·h/g. For the same molecule, the Cmax [23] was 15342 ng/g, the MRTlast [24] was 4.27 h and the MRTlast [25] was 1.58 h. The MRTlast [26] was 8.42 h and the t1/2 [27] was 11.3 h.
